In patent US20170119776A1, “CHIRAL 2,5-DISUBSTITUTED CYCLOPENTANECARBOXYLIC ACID DERIVATIVES AND USE THEREOF” (BAYER PHARMA AKTIENGESELLSCHAFT, priority 2014, published 2017) one finds IC50 data, which are given here for six molecules.

Type in all cases: biochemical
One assay deals with T1, MMP-12 of the rat (Rattus norvegicus, UniProt Q63341).
T1 construct: MMP-12 of the rat (Uniprot NP_446415.1; construct L96-V277); made in house; host or cells: E. coli (BL21), pDEco7 vector
Kind of assay: In vitro MMP-12 inhibition test of the rat. The text has this: (§1) The activity strength of the compounds according to the invention towards other MMPs (and therefore their selectivity) is likewise ascertained in in vitro inhibition tests. The MMP-mediated amidolytic cleavage of a suitable peptide substrate also leads here to a fluorescent light increase. The signal intensity of the fluorescent light is directly proportional to the enzyme activity. The active concentration of a test compound at which half of the enzyme is inhibited (50% signal intensity of the fluorescent light) is given as IC50 value.
MMP-12 of the rat (Uniprot NP_446415.1; construct L96-V277) is expressed with an additional N-terminal His-Tag and a consecutive TEV cleavage sequence by means of a pDEco7 vector in E. coli (BL21). The thus recombinantly expressed protein forms an intracellular insoluble protein compartment (so-called inclusion body). This is solubilized after separation and intensive washing under denaturing conditions. For this, the inclusion body pellet fraction from a 250 ml E. coli culture is taken up in a volume of 120 ml of buffer A (50 mM Tris pH 7.4, 100 mM NaCl, 0.03 mM ZnCl2, 10 mM CaCl2, 8 M urea). The soluble protein is renatured by in each case dialysing 60 ml of the sample several times at 4-8° C. against buffer B (50 mM Tris pH 7.4, 100 mM NaCl, 0.03 mM ZnCl2, 10 mM CaCl2). After the dialysis, the sample is centrifuged (25 000×g). The folded-back protein is obtained in the supernatant with a yield of 3.7 mg per 250 ml E. coli culture. The thus obtained protein is enzymatically active without further purification operations or protease-mediated cleavage processes.
1 μl of the test compound to be analysed (as a solution in DMSO, suitable concentrations e.g. 1 nM to 30 μM) is pipetted into 24 μl of MMP-12 protein (final concentration e.g. 1 nM) in reaction buffer (50 mM Tris/HCl pH 7.5, 10 mM CaCl2, 150 mM NaCl, 0.05% Brij®-35) in a white 384-hole microtiter plate (MTP). The enzymatic reaction is started by adding the intramolecularly quenched substrate Mca-Pro-Leu-Gly-Leu-Dpa(Dnp)-Ala-Arg-NH2 (final concentration e.g. 5 μM; R&D Systems, ES-001), such that a total test volume of 50 μl results. The progress of the MMP-12 reaction is measured by measuring the fluorescence intensity (excitation 320 nm, emission 410 nm) over a suitable period (e.g. over 120 min at a temperature of 32° C.).
(§2) Tables 3A and 3B below give the IC50 values from these tests for the inhibition of rodent MMPs for representative embodiment examples of the present invention and also for two structurally related comparison compounds from the prior art (as racemate and separated enantiomer)→(in part as average values from several independent individual determinations and rounded to two significant places). The IC50 values were determined for racemates and enantiomers from differently generated DMSO stock solutions. Whereas an automatically created DMSO stock solution from the internal substance logistics was used for racemates by means of a standard method, in the case of enantiomers, in each case a freshly produced, manually prepared DMSO stock solution was used for a more precise direct comparison of the enantiomers with one another.

The target in another assay is T2, MMP-13 (Homo sapiens, UniProt P45452).
T2 construct: purchased R&D Systems 511-MP
Kind of assay: In vitro MMP-13 inhibition test.
Source text: as §1
Recombinant MMP-13 (R&D Systems, 511-MP) is chemically activated in accordance with the manufacturer's instructions using APMA. 1 μl of the test compound to be analysed (as a solution in DMSO, suitable concentrations e.g. 1 nM to 30 μM) is pipette into 24 μl of activated enzyme (final concentration e.g. 0.1 nM) in reaction buffer (50 mM Tris/HCl pH 7.5, 10 mM CaCl2, 150 mM NaCl, 0.05% Brij®-35) in a white 384-hole microtiter plate (MTP). The enzymatic reaction is started by adding the intramolecularly quenched substrate Mca-Pro-Leu-Gly-Leu-Dpa(Dnp)-Ala-Arg-NH2 (final concentration e.g. 10 μM; R&D Systems, ES-001), such that a total test volume of 50 μl results. The progress of the MMP-13 reaction is measured by measuring the fluorescence intensity (excitation 320 nm, emission 410 nm) over a suitable period (e.g. over 120 min at a temperature of 32° C.).
The IC50 values were determined for racemates and enantiomers from differently generated DMSO stock solutions. Whereas an automatically produced DMSO stock solution from the internal substance logistics was used for racemates by means of a standard method, in the case of enantiomers a freshly produced, manually prepared DMSO stock solution was used in each case for a more precise direct comparison of the enantiomers with one another.

The target in another assay is T3, MMP-3 of the mouse (Mus musculus, UniProt P28862).
T3 construct: purchased R&D Systems 548-MP
Kind of assay: In vitro MMP-3 inhibition test of the mouse.
Source text: as §1
Recombinant MMP-3 of the mouse (R&D Systems, 548-MP) is chemically activated in accordance with the manufacturer's instructions using APMA. 1 μl of the test compound to be analysed (as a solution in DMSO, suitable concentrations e.g. 1 nM to 30 μM) is pipetted into 24 μl of activated enzyme (final concentration e.g. 0.5 nM) in reaction buffer (50 mM Tris/HCl pH 7.5, 10 mM CaCl2, 150 mM NaCl, 0.05% Brij®-35) in a white 384-hole microtiter plate (MTP). The enzymatic reaction is started by adding the intramolecularly quenched substrate Mca-Arg-Pro-Lys-Pro-Val-Glu-Nval-Trp-Arg-Lys(Dnp)-NH2 (final concentration e.g. 5 μM; R&D Systems, ES-002), such that a total test volume of 50 μl results. The progress of the MMP-3 reaction is measured by measuring the fluorescence intensity (excitation 320 nm, emission 410 nm) over a suitable period (e.g. over 120 min at a temperature of 32° C.).
as §2

T3 sequence (P28862 100-477): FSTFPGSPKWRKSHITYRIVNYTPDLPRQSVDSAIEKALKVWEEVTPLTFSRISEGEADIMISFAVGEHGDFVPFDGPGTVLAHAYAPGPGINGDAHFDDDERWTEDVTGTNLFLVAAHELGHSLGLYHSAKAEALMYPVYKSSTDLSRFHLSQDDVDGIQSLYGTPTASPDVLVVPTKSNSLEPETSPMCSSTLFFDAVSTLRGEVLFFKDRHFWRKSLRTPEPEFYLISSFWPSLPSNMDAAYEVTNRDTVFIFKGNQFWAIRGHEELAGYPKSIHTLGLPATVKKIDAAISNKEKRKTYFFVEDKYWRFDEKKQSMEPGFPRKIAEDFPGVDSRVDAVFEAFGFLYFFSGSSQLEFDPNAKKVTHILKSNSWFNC
T1 sequence (Q63341 96-277): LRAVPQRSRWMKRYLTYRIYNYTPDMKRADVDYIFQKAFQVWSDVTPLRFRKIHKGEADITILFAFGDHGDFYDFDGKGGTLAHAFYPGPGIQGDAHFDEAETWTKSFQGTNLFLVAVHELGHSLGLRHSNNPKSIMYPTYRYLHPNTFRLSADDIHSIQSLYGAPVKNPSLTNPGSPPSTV

On to `O=C(O)[C@H]1[C@H](Cn2nnc3ccccc3c2=O)CC[C@@H]1C(=O)c1ccc(-c2ccc(Cl)cc2)cc1` (racemic) [Comparative Example A-1, (1RS,2RS,5SR)-2-[(4′-chlorobiphenyl-4-yl)carbonyl]-5-[(4-oxo-1,2,3-benzotriazin-3(4H)-yl)methyl]cyclopentanecarboxylic acid (racemate)], for which the IC50 – broadly, the concentration that gives 50% inhibition – against MMP-12 of the rat is less than 0.61 nM; against MMP-13 it was 1.8 nM; against MMP-3 of the mouse, 17 nM.
For `CCCCCOc1ccc(C(=O)CC(CCn2nnc3ccccc3c2=O)C(=O)O)cc1` (racemic) [Comparative Example B-1, (+/−)-4-Oxo-2-[2-(4-oxo-1,2,3-benzotriazin-3(4H)-yl)ethyl]-4-[4-(pentyloxy)phenyl]butanoic acid (racemate)] the same measures were 29.3 nM, 1800 nM and 13000 nM.
For `O=C(O)[C@H]1[C@H](Cn2nnc3ccccc3c2=O)CC[C@@H]1C(=O)c1ccc(OCc2ccccc2)cc1` (racemic) [Example 1, (+/−)-(1RS,2RS,5SR)-2-[4-(Benzyloxy)benzoyl]-5-[(4-oxo-1,2,3-benzotriazin-3(4H)-yl)methyl]cyclopentanecarboxylic acid (racemate)] the same measures were less than 1 nM, 30 nM and 290 nM.
For `CCCCCOc1ccc(C(=O)CC(CCn2nnc3ccccc3c2=O)C(=O)O)cc1` (single isomer, unassigned; enantiomer 1) [Comparative Example B-2, (+)-4-Oxo-2-[2-(4-oxo-1,2,3-benzotriazin-3(4H)-yl)ethyl]-4-[4-(pentyloxy)phenyl]butanoic acid (enantiomer 1)], the IC50 against MMP-12 of the rat amounted to 24.5 nM; on MMP-13, 360 nM; against MMP-3 of the mouse, 6750 nM.
Take `O=C(O)[C@@H]1[C@@H](Cn2nnc3ccccc3c2=O)CC[C@H]1C(=O)c1ccc(-c2ccc(Cl)cc2)cc1` (single isomer, unassigned; enantiomer 2) [Comparative Example A-3, (1RS,2RS,5SR)-2-[(4′-Chlorobiphenyl-4-yl)carbonyl]-5-[(4-oxo-1,2,3-benzotriazin-3(4H)-yl)methyl]cyclopentanecarboxylic acid (enantiomer 2)]: the IC50 was less than 0.61 nM at MMP-12 of the rat, 0.82 nM on MMP-13 and 11.3 nM against MMP-3 of the mouse.
The like results for `O=C(O)[C@H]1[C@H](Cn2nnc3ccccc3c2=O)CC[C@@H]1C(=O)c1ccc(OCc2ccccc2)cc1` [Example 2, (+)-(1S,2S,5R)-2-[4-(Benzyloxy)benzoyl]-5-[(4-oxo-1,2,3-benzotriazin-3(4H)-yl)methyl]cyclopentanecarboxylic acid] were, in that order, less than 0.61 nM, 14.5 nM and 87 nM.
